Measurements from the supplement of paper PMC5373622, “Screening for AMPA receptor auxiliary subunit specific modulators” (PLoS ONE, 2017).
± gives the standard deviation of the averaged measurements.

Tests used:
[1] = system: GRIA2; assay: compound-evoked VSD slope (no glutamate), % of maximal glutamate slope; higher = agonist activity
Description: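 VSD concentration-response of known AMPAR ligands (fluorowillardiine, CX-546, cyclothiazide) on A2R-stg and A2R-C3 HEK293 cells, with compound added before EC50 glutamate. Per-well GluSlope and compound-window slope are given as % of the maximal-glutamate slope after vehicle subtraction.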

[2] = system: GRIA2; assay: glutamate-evoked VSD slope, % of maximal glutamate response; higher = potentiation

| SMILES | compound-evoked VSD slope ([1]; 3.91 µM, clone: A2R-C3) [%] | compound-evoked VSD slope ([1]; 3.91 µM, clone: A2R-stg) [%] | compound-evoked VSD slope ([1]; 7.81 µM, clone: A2R-C3) [%] | compound-evoked VSD slope ([1]; 7.81 µM, clone: A2R-stg) [%] | compound-evoked VSD slope ([1]; 15.6 µM, clone: A2R-C3) [%] | compound-evoked VSD slope ([1]; 15.6 µM, clone: A2R-stg) [%] | compound-evoked VSD slope ([1]; 31.2 µM, clone: A2R-C3) [%] | compound-evoked VSD slope ([1]; 31.2 µM, clone: A2R-stg) [%] | compound-evoked VSD slope ([1]; 62.5 µM, clone: A2R-C3) [%] | compound-evoked VSD slope ([1]; 62.5 µM, clone: A2R-stg) [%] | compound-evoked VSD slope ([1]; 0.000125 M, clone: A2R-C3) [%] | compound-evoked VSD slope ([1]; 0.000125 M, clone: A2R-stg) [%] | compound-evoked VSD slope ([1]; 0.0005 M, clone: A2R-C3) [%] | compound-evoked VSD slope ([1]; 0.001 M, clone: A2R-C3) [%] | glutamate-evoked VSD slope ([2]; 3.91 µM, clone: A2R-C3) [%] | glutamate-evoked VSD slope ([2]; 7.81 µM, clone: A2R-C3) [%] | glutamate-evoked VSD slope ([2]; 7.81 µM, clone: A2R-stg) [%] | glutamate-evoked VSD slope ([2]; 15.6 µM, clone: A2R-C3) [%] | glutamate-evoked VSD slope ([2]; 15.6 µM, clone: A2R-stg) [%] | glutamate-evoked VSD slope ([2]; 31.2 µM, clone: A2R-stg) [%] | glutamate-evoked VSD slope ([2]; 62.5 µM, clone: A2R-C3) [%] | glutamate-evoked VSD slope ([2]; 62.5 µM, clone: A2R-stg) [%] | glutamate-evoked VSD slope ([2]; 0.000125 M, clone: A2R-C3) [%] | glutamate-evoked VSD slope ([2]; 0.00025 M, clone: A2R-stg) [%] | glutamate-evoked VSD slope ([2]; 0.0005 M, clone: A2R-C3) [%] | glutamate-evoked VSD slope ([2]; 0.001 M, clone: A2R-C3) [%] | glutamate-evoked VSD slope ([2]; 0.001 M, clone: A2R-stg) [%] | compound-evoked VSD slope ([1]; 1.95 µM, clone: A2R-C3) [%] | compound-evoked VSD slope ([1]; 1.95 µM, clone: A2R-stg) [%] | compound-evoked VSD slope ([1]; 0.00025 M, clone: A2R-C3) [%] | compound-evoked VSD slope ([1]; 0.00025 M, clone: A2R-stg) [%] | compound-evoked VSD slope ([1]; 0.0005 M, clone: A2R-stg) [%] | glutamate-evoked VSD slope ([2]; 1.95 µM, clone: A2R-C3) [%] | glutamate-evoked VSD slope ([2]; 1.95 µM, clone: A2R-stg) [%] | glutamate-evoked VSD slope ([2]; 3.91 µM, clone: A2R-stg) [%] | glutamate-evoked VSD slope ([2]; 31.2 µM, clone: A2R-C3) [%] | glutamate-evoked VSD slope ([2]; 0.000125 M, clone: A2R-stg) [%] | glutamate-evoked VSD slope ([2]; 0.0005 M, clone: A2R-stg) [%] |
| --- | --- | --- | --- | --- | --- | --- | --- | --- | --- | --- | --- | --- | --- | --- | --- | --- | --- | --- | --- | --- | --- | --- | --- | --- | --- | --- | --- | --- | --- | --- | --- | --- | --- | --- | --- | --- | --- | --- |
| O=C(c1ccc2c(c1)OCCO2)N1CCCCC1 [CX-546] | 16.4 ± 1.7 | 26.8 ± 0.99 | 16.9 ± 0.81 | 27.4 ± 1 | 16.1 ± 4.3 | 26.7 ± 1.3 | 16.2 ± 3.6 | 26.7 ± 1.4 | 18.9 ± 2.4 | 28 ± 0.66 | 18.9 ± 0.99 | 29.5 ± 0.74 | 23.4 ± 0.91 | 29.1 ± 1.2 | 12.5 ± 1.8 | 10.8 ± 3.4 | 20.7 ± 4.5 | 15.8 ± 6.4 | 24.6 ± 8 | 24.9 ± 3.2 | 23 ± 2 | 41.4 ± 4.9 | 25.6 ± 3.4 | 53.6 ± 3 | 40.3 ± 4.6 | 47.6 ± 10 | 54.1 ± 3.9 |  |  |  |  |  |  |  |  |  |  |  |
| NS(=O)(=O)c1cc2c(cc1Cl)NC(C1CC3C=CC1C3)NS2(=O)=O (configuration not stated) [cyclothiazide] | 18.4 ± 1.1 | 26.6 ± 1.6 | 15.7 ± 1.1 | 27.1 ± 1.4 | 18 ± 1.3 | 27.3 ± 0.81 | 18.6 ± 0.53 | 27.7 ± 1.1 | 18.6 ± 1.4 | 28.8 ± 0.79 | 19.2 ± 1.4 | 29 ± 0.62 | 20.7 ± 1.4 |  | 26.7 ± 2.5 | 42.8 ± 3.3 | 52.6 ± 3.2 | 56.6 ± 5.3 | 60 ± 5.6 | 62.7 ± 9.1 | 70.9 ± 3.4 | 68.8 ± 4 | 63.8 ± 21 | 71.3 ± 3.3 | 69 ± 4.6 |  |  | 16.2 ± 1.1 | 27.7 ± 0.73 | 20.3 ± 1.3 | 28.2 ± 1.1 | 27.5 ± 1.8 | 23 ± 3.3 | 30.6 ± 5.6 | 37.5 ± 5.1 | 65.2 ± 3.7 | 68.4 ± 3.5 | 65.9 ± 8.1 |
